Tests used:
[1] = molecular target: T1, ScRR (ScRR1 with ScRR2•ScRR4) (Saccharomyces cerevisiae, UniProt P21524); assay: NDP reduction assay; assay type: biochemical; conditions: read-out: % inhibition at 20 μM
T1 sequence (P21524 1-888): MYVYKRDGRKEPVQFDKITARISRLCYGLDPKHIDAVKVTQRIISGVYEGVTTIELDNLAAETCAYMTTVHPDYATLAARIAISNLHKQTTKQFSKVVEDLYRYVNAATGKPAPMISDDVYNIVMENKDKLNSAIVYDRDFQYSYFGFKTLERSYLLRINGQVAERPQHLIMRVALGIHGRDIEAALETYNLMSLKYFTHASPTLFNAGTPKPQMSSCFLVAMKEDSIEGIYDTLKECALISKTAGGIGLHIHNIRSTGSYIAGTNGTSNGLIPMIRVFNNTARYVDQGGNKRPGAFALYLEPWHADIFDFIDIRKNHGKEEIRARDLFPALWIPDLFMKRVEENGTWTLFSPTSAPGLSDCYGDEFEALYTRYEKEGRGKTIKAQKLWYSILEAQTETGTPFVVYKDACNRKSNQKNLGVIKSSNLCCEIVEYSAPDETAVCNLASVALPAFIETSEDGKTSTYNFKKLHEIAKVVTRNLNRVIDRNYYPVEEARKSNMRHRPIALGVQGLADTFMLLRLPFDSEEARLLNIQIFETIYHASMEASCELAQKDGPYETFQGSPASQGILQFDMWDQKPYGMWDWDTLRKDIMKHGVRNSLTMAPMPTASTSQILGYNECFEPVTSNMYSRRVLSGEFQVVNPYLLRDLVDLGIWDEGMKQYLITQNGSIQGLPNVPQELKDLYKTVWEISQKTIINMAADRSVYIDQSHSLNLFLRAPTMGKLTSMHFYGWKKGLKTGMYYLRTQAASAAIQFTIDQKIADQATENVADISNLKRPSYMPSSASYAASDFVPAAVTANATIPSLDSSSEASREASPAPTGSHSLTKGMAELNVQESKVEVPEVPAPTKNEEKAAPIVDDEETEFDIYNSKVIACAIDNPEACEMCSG
T1 sequence (P09938 1-399 partner): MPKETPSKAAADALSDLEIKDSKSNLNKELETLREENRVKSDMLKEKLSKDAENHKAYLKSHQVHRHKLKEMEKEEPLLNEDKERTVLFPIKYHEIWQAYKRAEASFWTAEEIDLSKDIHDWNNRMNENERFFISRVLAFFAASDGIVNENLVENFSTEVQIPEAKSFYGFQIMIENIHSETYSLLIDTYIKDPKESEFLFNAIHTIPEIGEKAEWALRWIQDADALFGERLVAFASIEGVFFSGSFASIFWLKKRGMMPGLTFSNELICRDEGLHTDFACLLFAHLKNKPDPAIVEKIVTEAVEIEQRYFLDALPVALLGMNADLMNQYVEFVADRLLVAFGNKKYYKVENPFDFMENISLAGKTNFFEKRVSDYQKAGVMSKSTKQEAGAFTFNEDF
T1 sequence (P49723 1-345 partner): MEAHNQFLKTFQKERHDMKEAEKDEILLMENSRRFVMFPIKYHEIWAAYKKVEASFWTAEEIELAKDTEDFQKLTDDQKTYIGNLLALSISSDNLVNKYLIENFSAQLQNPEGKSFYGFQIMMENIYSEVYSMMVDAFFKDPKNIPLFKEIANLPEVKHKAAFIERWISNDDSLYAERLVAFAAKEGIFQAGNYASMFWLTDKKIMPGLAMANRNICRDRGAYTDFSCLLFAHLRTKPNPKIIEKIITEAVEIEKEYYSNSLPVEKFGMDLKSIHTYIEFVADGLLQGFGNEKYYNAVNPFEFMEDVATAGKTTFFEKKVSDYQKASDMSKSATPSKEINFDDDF

[2] = molecular target: T1, ScRR (ScRR1 with ScRR2•ScRR4); assay: [3H]CDP reduction assay, borate chromatography, isotope counting; assay type: biochemical; conditions: ATP effector, 0.05 to 1 mM CDP (hexamer); labelled compound; C-site

SMILES	inhibition at 20 µM [1] [%]	[3H]CDP reduction assay, borate chromatography, isotope counting [2]
Nc1ncnc2c1ncn2[C@H]1C[C@H](O)[C@@H](COP(=O)(O)OP(=O)(O)OP(=O)(O)O)O1 [dATP]	~50	–
Nc1ccn([C@@H]2O[C@H](COP(=O)(O)OP(=O)(O)O)[C@@H](O)[C@H]2O)c(=O)n1 [CDP]	–	When ATP/CDP was used as the effector-substrate pair, [^3H]CDP concentrations were varied
